This is an account of results in patent publication US20050215531A1, “Use of edg receptor binding agents in cancer” (priority 2002, published 2005).

Assay type in all cases: cell-based, human
One assay has as its system ERK½ MAP kinases. Description: Western blot, activation of ERK½ MAP kinases in HUVEC. Particulars: HUVEC. How it is done:
(§1) Human umbilical vein endothelial cells (HUVEC) are cultured at 37° C. and 5% CO2 in medium M199 supplemented with 20% SCS (HyClone, Logan, Utah), 1 U/ml heparin, 50 μg/ml ECGS, 2 mM glutamine, 100 U/ml penicillin and 0.1 mg/ml streptomycin. Cells are used for experiments up to passage number 5. Short-starved HUVEC are obtained by starving with 1% SCS-containing M199 for 5 h. Recombinant human VEGF165 is obtained from PromoCell (Heidelberg, Germany). Phospho-specific ERK½, p3B kinase polyclonal antibodies, nonphospho ERK½ antibodies and LumiGLO chemiluminescent reagent are from New England BioLabs (Beverly, Mass.), polyclonal IKB antibodies from Santa Cruz Biotechnology (Santa Cruz, Calif.). Peroxidase-conjugated donkey anti-rabbit immunoglobulin G (IgG) and sheep anti-mouse IgG are purchased from Amersham LIFE SCIENCE (Amersham Place, England). lmmobilon-P transfer membranes are products of Millipore (Bedford, Mass.). S is obtained from Sigma Chemical Co.; S1P is from Biomol. Compound A-phosphate stock solution is prepared by the following protocol. Compound A-phosphate is dissolved in methanol tracing with concentrated HCl (0.5 mg Compound A-phosphate in 500 μl of methanol plus 2 μl of HCl). Solvent from the resulting solution is evaporated under vacuum and the residue obtained is redissolved (variant 1) in 0.1% of defatted BSA solution in sterile deionized water (500 μl) or (variant 2) in 0.5% Triton X-100 in deionized water. The resulting stock solutions (2.5 mM) are sonicated and stored at 4° C.
After various treatments, the cells are washed twice with cold PBS, lysed in 100 μl of Laemmli buffer, scraped and heated for 5 min at 95° C. Total cell lysates are separated by SDS-PAGE and transferred to Immobilon-P membrane. The membrane is blocked for 30 minutes with PBS containing 0.1% Tween-20 and 3% skim milk and incubated for 1 hour at RT with a primary antibody diluted in blocking buffer. The membrane obtained is washed three times for 5 minutes with PBS containing 0.1% Tween-20 and incubated with peroxidase-conjugated secondary antibody for 1 hour at RT. After a washing step, the membrane is incubated for 1 minute with ECL reagent and exposed to film as required. For reprobing with another antibody, the membrane is washed twice in PBS, stripped for 30 min at 55° C. with stripping buffer (62.5 mM Tris-HCL, pH 6.8, 2% SDS, 100 mM 2-mercaptoethanol) and washed three times for 5 minutes with PBS at RT. The membrane is stored wet wrapped in SaranWrap at 4° C. after each immunodetection.
Signal transduction via MAP idnases plays a key role in a variety of endothelial cell functions. Treatment of HUVEC with Compound A-phosphate at 0.5 μM may result in transient activation of ERK½ with a peak of phosphorylation/activation at 10 minutes and returning to baseline by 20 minutes (see e.g. FIG. 5). No activation of p38 kinase and JNK½ by Compound A-phosphate is detectable in HUVEC. […] To estimate the possible role of inflammatory/NFκB-dependent program in Compound A-phosphatestimulated bioresponses of endothelial cells, the membranes are reprobed with anti-IκB antibodies. IκB levels are not affected by Compound A-phosphate treatment.
(In general: A western blot detects proteins with antibodies after separation by electrophoresis.)

Another assay has as its system IκB. Description: Western blot reprobed with anti-IκB antibodies (NFκB-dependent program). The note with it: endothelial cells. Here is the method: as §1, with “Solvent from the resulting solution is evaporated under vacuum and the residue obtained is redissolved (variant 1) in 0.1% of defatted BSA solution in sterile deionized water (500 μl) or (variant 2) in 0.5% Triton X-100 in deionized water. The resulting stock solutions (2.5 mM) are sonicated and stored at 4° C.” left out

A further assay has as its system HUVEC. Description: S1P-mediated HUVEC tube formation assay. The note with it: branching points in 3 independent fields at 4× magnification. How it is done:
For the tube formation assay, HUVEC from passage 2-8 are used and are never greater than 70% confluent before harvesting. Cells are prepared for the assay by washing with Herpes Balanced Saline Solution (HBSS from Clonetics) and then trypsinizing with Trypsin/EDTA (0.25 mg/ml, from Clonetics). After approximately 90% of the cells have lifted off the plate, an equal volume of Trypsin Neutralizing Solution (TNS from Clonetics) is added and the cells are collected into a conical tube containing at least 10 ml of EBM-2 (Clonetics)+0.1% BSA (Sigma) media Cells are centrifuged at 1000 rpm for 5 minutes and the supematant is removed and replaced with 5 ml of fresh EBM-2+0.1% BSA. Cells are counted using a hemacytometer and the volume of the cell suspension is adjusted to achieve a concentration of 500,000 cells/ml. Conical tubes are prepared with test compounds at 100 nM, and pertussin toxin (PTx) at 10 ng/ml in each, then 1 ml of the cell suspension is added to each tube. Tubes are then incubated for ½ hour at 37° C., 5% CO2. The migration assay is performed using Fluoro-Blok 24-Multiwell insert Plates coated with fibronectin (8 μm pore size, Falcon #351147) instead of the individual inserts in a 24-well plate. Cells and test compounds are prepared and pre-incubated as described above, then 100 μl is added to each approriate well in the Insert Plate. 300 μl of the EBM-2+2% charcoastripped media without S1P is added to the bottoms of the wells marked for no stimulation (−), and 300 μl of the media containing S1P (500 nM) is added to the bottoms of the wells marked for stimulation (+). The plate is then incubated for 4 hours at 37° C., 5% CO2. […]
After incubation, the plate is read on a Cytofluor II at an excitation of 485 nm and emission of 530 nm. The Fluoro-Blok coating in the inserts allows only the cells that have migrated to the bottom to be counted. […]
Tube formation is quantitated by counting the number of branching points (two independent cords connecting) in 3 independent fields at 4× magnification.

Another assay relates to JNK½. Description: Western blot, JNK½ activation in HUVEC. Here is the method: as §1, with “Solvent from the resulting solution is evaporated under vacuum and the residue obtained is redissolved (variant 1) in 0.1% of defatted BSA solution in sterile deionized water (500 μl) or (variant 2) in 0.5% Triton X-100 in deionized water. The resulting stock solutions (2.5 mM) are sonicated and stored at 4° C.” left out

Consider `CCCCCCCCc1ccc(CCC(N)(CO)COP(=O)(O)O)cc1` (stereo not shown) [Compound A-phosphate], for which the “time of ERK½ activation returning to baseline” value in the assay on ERK½ MAP kinases (0.5 μM) is no more than 20 min. In addition, the “time of peak of ERK½ phosphorylation/activation” value in the assay with ERK½ MAP kinases (0.5 μM, transient activation) was 10 min. The “ERK½ activation, dose dependence” value in the assay with ERK½ MAP kinases (0.5 versus 2 μM) is given as “dose-dependent manner, showing stronger activity at 2 μM”. In addition, in the assay on IκB, the IκB levels result was “not affected”. Also, the results for the “Branching Points” value in the assay on HUVEC (treatment + S1P) and in the assay on HUVEC (treatment alone) were 14 ± 7 and 48 ± 15, respectively. The “activation of JNK½” value in the assay on JNK½ is “No activation”.
